The test system of this assay is rat-derived retinal ganglion cells (RGC). The assay can be described thus: Neurite outgrowth inducing effect in culture system of rat-derived retinal ganglion cells. The format is cell-based. The settings on record: all-trans form content 3 μM, 48 h; FIG. 2 and 3; n=4, Tukey-Kramer. The text has this:
The progress of visual impairment in glaucoma is associated with retinal ganglion cell (RGC) death due to blood flow failure occurring near the optic nerve (Folia Pharmacol. Jpn. 128, 255-258 (2006)). Accordingly, a culture system of rat-derived retinal neurons (Current protocols in Neuroscience 3.22.1-3.22.10, October 2010), which is widely used as one of study tools for optic nerve diseases such as a glaucoma, was used to examine the neurite outgrowth inducing effect of GGA.
Four-day-old Wistar rats (Japan SLC, Inc.) were euthanized by cervical dislocation and the eyeballs were harvested. The harvested eyeballs were immersed in 70% ethanol for 10 seconds and transferred to a Hanks' balanced salt solution containing 100 U/mL penicillin and 100 μg/mL streptomycin. Under a stereoscopic microscope, the corneas, irises, crystalline lenses, and vitreous bodies were removed using scissors for surgery and forceps, and the retinal tissue was harvested. The harvested retinal tissue was transferred to a centrifugation tube containing 5 mL of a basal medium for neuronal cells (Neurobasal, Invitrogen) containing 100 U/mL penicillin, 100 μg/mL streptomycin, a neural cell culture supplement (B27™-Supplement, Invitrogen), 1 μM L-cysteine (Kyowa Hakko Bio) and 15 U/mL papain (Sigma Aldrich) and incubated at 37° C. for 30 minutes. […]

The structures appear in SMILES notation.

Take `CC(=O)CC/C=C(\C)CC/C=C(\C)CC/C=C(\C)CCC=C(C)C` [all-trans form, (5E,9E,13E)-6,10,14,18-tetramethyl-5,9,13,17-nonadecatetrae n-2-one]: the “neurite inducing effect (mean length of neurites of RGC) compared with GGA 6:4 and base” value was “significant neurite inducing effect”.

These data come from patent US9724312B2, “Agent for the prevention, improvement or treatment of retinal disease” (ROHTO PHARMACEUTICAL CO., LTD., priority 2012, dated 2017).
